Test results as given in patent publication US20250235499A1, “ANTI-OVARIAN CANCER PHARMACEUTICAL COMPOSITION AND ACTION TARGET THEREOF” (Zhejiang Chinese Medical University, priority 2024, published 2025).

Columns and labels:
[1] = system: SKOV3 ovarian cancer cells; test: Cell cycle by flow cytometry (PI) with MCM2 knockdown or overexpression; format: cell-based, human
Experimental: SKOV3 and Hey ovarian cancer cells in logarithmic growth phase were knocked down with MCM2 (Control group, sh-NC group, sh-MCM2 group) and overexpressed with MCM2 (Control group, OE-NC group, OE-MCM2 group). The original culture medium was discarded, washed with PBS buffer, and digested with 0.1% trypsin. A corresponding culture medium was added to prepare a cell suspension. Cells were counted using a hemocytometer and a cell concentration was quantified at 5×10^4 cells/mL. 1500 μL of each well was inoculated into a 6 well plate, with 3 parallel wells in each group, and incubated in a 37° C. incubator containing 5% CO2 for 24 hours. After the cultivation time was over, the six well plate was taken out and aspirated the original culture medium from the wells for later use. The PBS buffer was added to gently wash the cells three times. 500 μL of 0.1% trypsin was added to each well to wait for the cells to be blown off with a pipette, then the original culture medium from the wells was added to terminate digestion. A pipette was used to gently blow off all the cells on the wall of the six well plate. The cell suspension was aspirated, transferred to a centrifuge tube, and centrifuged at 4° C. and 1000 rpm for 5 minutes. The supernatant was discarded, and 1 mL of pre-cooled PBS buffer was added to gently resuspend the cells, and transferred to a 1.5 mL sterile centrifuge tube. The mixture was centrifuged at 4° C. and 1000 rpm for 5 minutes, the supernatant was discarded, and the bottom of the centrifuge tube was gently tapped to disperse the cells. 1 mL of pre-cooled 70% ethanol was added, blown and mixed well to form a cell suspension, and placed in a refrigerator at 4° C. for 24 hours. After fixation, a water bath kettle was opened in advance, the temperature was set to 37° C., the centrifugation was performed for 5 minutes at 4° C. and 1000 rpm, and the supernatant was discarded. 1 mL of pre-cooled PBS buffer was added and gently resuspended to wash the cells. The mixture was centrifuged at 4° C. and 1000 rpm for 5 minutes, the supernatant was discarded, and the bottom of the centrifuge tube was gently tapped to disperse the cells. 500 μL of PI staining working solution containing RNase was added to each cell sample to be tested, and placed in a 37° C. dark water bath for 30 minutes. A flow cytometer was used to detect red fluorescence at an excitation wavelength of 488 nm, while also measuring light scattering. A modfit 3.2 version was used for cell DNA cycle analysis.

[2] = system: MCM2, CDK4, Cyclin D1, P21; test: Immunohistochemical assay of tumor body cell cycle related proteins in tumor bearing nude mice; format: in vivo, BALB/c nude mice; settings: nude mouse tumor body, compared to the Control group
Experimental: The immunohistochemistry of tumor body cyclin in tumor bearing nude mice after intervention with DDP, CA, BDMC, and combined administration was shown in FIG. 28. The image was magnified by 400×, with a scale of 10 μM. The expression of MCM2, CDK4, and Cyclin D1 proteins in the CA group, BDMC group, and CA+BDMC group decreased compared to the Control group; and the expression of MCM2, CDK4, and Cyclin D1 proteins in the CA+BDMC group decreased compared to the CA group and BDMC group. The expression of P21 protein in the CA group, BDMC group, and CA+BDMC group increased compared to the Control group; and the expression of P21 protein in the CA+BDMC group increased compared to the CA group and BDMC group.

[3] = system: MCM2 protein in Hey cells; test: MCM2 protein expression in ovarian cancer cell after intervention; format: cell-based, human; settings: 24 hours, 100 μmol/L CA, 6.25 μmol/L BDMC, compared to the Control group
Experimental: (§1) The effect of intervention on MCM2 protein expression in the SKOV3 and Hey ovarian cancer cells for 24 hours in the CA group using 100 μmol/L CA, the BDMC group using 6.25 μmol/L BDMC, and the CA+BDMC group using 100 μmol/L CA+6.25 μmol/L BDMC in Example 1 was shown in FIGS. 16A-16B, wherein A represented the expression of MCM2 protein in SKOV3 cells; B represented the expression of MCM2 protein in Hey cells compared to the Control group, #P<0.05, ##P<0.01; and compared with the CA+BDMC group, &P<0.05, &&P<0.01.

[4] = system: MCM2 protein in SKOV3 cells; test: as above; format: cell-based, human; settings: SKOV3, 24 hours, 100 μmol/L CA, 6.25 μmol/L BDMC; compared to the Control group
Experimental: as §1

[5] = system: Hey ovarian cancer cells; test: CCK-8 detection of proliferation of an ovarian cancer cell; format: cell-based, human; settings: CA 50-800 μmol/L, BDMC 3.125-50 μmol/L, 24 and 48 hours, concentration- and time-dependent
Experimental: (§2) SKOV3 and Hey ovarian cancer cells in logarithmic growth phase were digested with 0.1% trypsin to prepare a cell suspension, and the cell concentration was quantified at 10^4 cells/mL. 200 μL of the cell suspension each well was inoculated into a 96 well plate, and 200 μL of PBS was added to each well of the outer circle to eliminate edge effects. The 96 well plate was placed in a 37° C. incubator containing 5% CO2 for 24 hours each. After the cells adhered to the wall, the culture medium was discarded, and the cells were washed three times with PBS buffer. New culture medium containing different concentrations of CA (0, 50, 100, 200, 400, and 800 μmol/L) and BDMC ([…]) were added, with 6 parallel wells in each group. After adding a pharmaceutical, cultivation was further conducted, the 96 well plate was taken out at 24 hours and 48 hours, the original culture medium was discarded, the cells were washed three times with PBS, 200 μL of prepared serum-free culture medium containing 10% CCK-8 was added, and incubated at 37° C. for 1 hour. A well with drug concentration of 0 μmol/L was used as a control well and a well without cells and only added with a CCK-8 solution as a blank well. An absorbance at a wavelength of 450 nm was measured using a microplate reader, and an IC50 value was calculated using GraphPad Prism 8 software. […]

[6] = system: SKOV3 ovarian cancer cells; test: as above; format: cell-based, human; settings: CA 50-800 μmol/L, BDMC 3.125-50 μmol/L, 24 and 48 hours, concentration- and time-dependent
Experimental: as §2

[7] = system: E-cadherin, N-cadherin, Vimentin in SKOV3 cells; test: Expression of EMT related proteins in cells; format: cell-based, human
[8] = SKOV3 OE-MCM2 cells (MCM2 overexpression), vs OE-MCM2 group
[9] = SKOV3 OE-NC cells (empty vector), vs OE-NC group
[10] = SKOV3 sh-MCM2 cells (MCM2 knockdown), vs sh-MCM2 group
[11] = SKOV3 sh-NC cells (empty vector), vs sh-NC group

Structure (SMILES): COc1ccc(-c2coc3cc(O)ccc3c2=O)cc1O [CA, calycosin]
- percentage of G0/G1 phase cells [1, 8]: no significant change
- percentage of G0/G1 phase cells [1, 9]: significantly increased
- percentage of G0/G1 phase cells [1, 10]: no significant change
- percentage of G0/G1 phase cells [1, 11]: significantly increased
- expression of CDK4 protein (immunohistochemistry) [2]: decreased
- expression of Cyclin D1 protein (immunohistochemistry) [2]: decreased
- expression of MCM2 protein (immunohistochemistry) [2]: decreased
- expression of P21 protein (immunohistochemistry) [2]: increased
- expression of the MCM2 protein [3]: significantly decreased
- expression of the MCM2 protein [4]: significantly decreased
- effect on proliferation [5]: proliferative inhibitory effects
- effect on proliferation [6]: proliferative inhibitory effects
- expression of E-cadherin [7, 8]: no significant change
- expression of N-cadherin [7, 8]: no significant change
- expression of Vimentin [7, 8]: no significant change
- expression of E-cadherin [7, 9]: significantly increased
- expression of N-cadherin [7, 9]: significantly decreased
- expression of Vimentin [7, 9]: significantly decreased
- expression of E-cadherin [7, 10]: no significant change
- expression of N-cadherin [7, 10]: no significant change
- expression of Vimentin [7, 10]: no significant change
- expression of E-cadherin [7, 11]: significantly increased
- expression of N-cadherin [7, 11]: significantly decreased
- expression of Vimentin [7, 11]: significantly decreased
